The text below walks through data of US20080058421A1, “COMPOSITIONS FOR CLEANING AND DISINFECTING NASAL TRACT AND SINUS CAVITY” (priority 2006, published 2008).

What all share (format): cell-based
For experiment [1], the system named is Staphylococcus aureus ATCC 6538. Description: A.O.A.C. sanitizer and germicidal detergent test. The source says:
(§1) The bacterial cultures were purchased from the American Type Culture Collection (ATCC), (Bethesda, Md.). Escherichia coli and Staphylococcus aureus are used to represent both gram-negative and gram-positive bacterial classes. This test is used by the US EPA for to determine compliance for a product to be used as a sanitizing agent. A product that reduces population density of both types of bacteria in 30 seconds by 99.999% satisfies the requirement as a sanitizing agent.

Experiment [2] concerns Escherichia coli ATCC 11229. Description: A.O.A.C. sanitizer and germicidal detergent test.
Text: as §1

Experiment [3] relates to P. a. 10145 (Pseudomonas aeruginosa). The experiment in a line: modified A.O.A.C. germicidal and detergent sanitizer test. The method, then: (§2) The efficacy of the sanitizers in Examples 1, 2 and 3 was further evaluated with […] as controls against Salmonella typhimurium, Listeria monocytogenes, Aeromonas hydrophila, and Pseudomonas aeruginosa essentially by the modified detergent and germicidal sanitizer test of the A.O.A.C. The sanitizers were tested against both natural isolates and the antibiotic resistant strains of Listeria monocytogenes and Salmonella typhimurium. Each of the antibiotic resistant strains was used separately as well as in a composite strain prepared by mixing equal numbers of five different antibiotic resistant strains of Listeria monocytogenes or those of Salmonella typhimurium, respectively.

Experiment [4] relates to L. m. 7644 (Listeria monocytogenes). The description is as above. The method, then:
as §2

For experiment [5], the system named is S. t. 7823 (Salmonella typhimurium). The experiment is described as above. The method, then: as §2
In experiment [6] the test system is A. h. 7965 (Aeromonas hydrophila). The description is as above. The method, then: as §2
Where [7] appears, read: sanitizer criterion is 99.999% reduction in 30 seconds.

For the compound `OCl` [Hypochlorite], the “meets criterion of a sanitizer (99.999% reduction in 30 seconds)” value in experiment [1] (Fifty ppm hypochlorite) and in experiment [2] (Fifty ppm hypochlorite) was “meets the criterion of a sanitizer” in each case. Further, the “% Kill Staph. aureus” value in experiment [1] (setting [7]) was greater than 99.999%. For the same compound, the “% Kill E. coli” value in experiment [2] (setting [7]) is given as greater than 99.999%. Also, the “% Kill” value in experiment [3] (30 seconds contact) was greater than 99.999%; in experiment [3] (60 seconds contact) it was greater than 99.999%; in experiment [4] (30 seconds contact), greater than 99.999%; in experiment [4] (60 seconds contact) it was greater than 99.999%; in experiment [5] (30 seconds contact), less than 99.999%; in experiment [5] (60 seconds contact), greater than 99.999%. The “% Kill” value in experiment [6] (30 seconds contact) and in experiment [6] (60 seconds contact) was greater than 99.999% each time. Also, in experiment [5] (30 seconds contact, HOCL = 50 ppm, duplicate counts), the “Number of surviving bacteria/ml after contact, cfu/ml” value is listed as “T@, T@”.
